Reference: ChEMBL document CHEMBL1154283, “Chrotacumines A-D, chromone alkaloids from Dysoxylum acutangulum” (J Nat Prod, 2009)

Columns and labels:
Assay type in all cases: functional, cell-based
HL-60 = experiment: Cytotoxicity against human HL60 cells after 48 hrs by MTT assay; conditions: HL-60, 48 h
NCI-H226 = experiment: Cytotoxicity against human NCI-H226 cells after 48 hrs by MTT assay; conditions: NCI-H226, 48 h
HCT-116 = experiment: Cytotoxicity against human HCT116 cells after 48 hrs by MTT assay; conditions: HCT-116, 48 h
MCF7 = experiment: Cytotoxicity against human MCF7 cells after 48 hrs by MTT assay; conditions: MCF7, 48 h
A549 = experiment: Cytotoxicity against human A549 cells after 48 hrs by MTT assay; conditions: A549, 48 h

Row | Structure (SMILES) | IC50 (HL-60) | IC50 (NCI-H226) | IC50 (HCT-116) | IC50 (MCF7) | IC50 (A549)
1 | C/C=C(\C)C(=O)O[C@@H]1CN(C)CC[C@@H]1c1c(O)cc(O)c2c(=O)cc(C)oc12 [CHROTACUMINE B] | > 10 µM | – | – | – | –
2 | Cc1cc(=O)c2c(O)cc3c(c2o1)[C@@H]1C[C@H](O3)N(C)C[C@H]1OC(=O)c1ccccc1 [CHROTACUMINE A] | > 10 µM | – | – | – | –
3 | Cc1cc(=O)c2c(O)cc(O)c([C@H]3CCN(C)C[C@H]3O)c2o1 [ROHITUKINE] | 7.5 µM | > 10 µM | 8.8 µM | > 10 µM | > 10 µM
4 | COc1cc(C(=O)O[C@@H]2CN(C)CC[C@@H]2c2c(O)cc(O)c3c(=O)cc(C)oc23)cc(OC)c1OC [CHROTACUMINE C] | > 10 µM | – | – | – | –
5 | COc1ccc(C(=O)O[C@@H]2CN(C)CC[C@@H]2c2c(O)cc(O)c3c(=O)cc(C)oc23)cc1OC [CHROTACUMINE D] | > 10 µM | – | – | – | –
